What was measured:
[1] = tested on: sputum excretion; test: Sputum excretion action (phenol red excretion from trachea sections, method of Engler et al.); assay type: in vivo, male ICR mice; conditions: relative to negative control
Procedure: The hydroquinone derivative of the present invention was orally administered to 8 week old male ICR mice in a single dose, and the sputum excretion action was evaluated according to the method of Engler et al. (Engler H, Szelenyi I, J.Pharmacol. Moth. 11, 151-157, 1984).
Specifically, the test was conducted as follows. The test material was orally administered to the mice in the control group and the test groups, i.e., an aqueous solution of 2% gum arabic was administered to the mice in the negative control group, and 2,3,5-trimethylhydroquinone-1-hexyl ether (HTHQ), the test substance, was orally administered to the mice in the HTHQ-administered groups at 100 mg/kg body weight, 200 mg/kg body weight and 400 mg/kg body weight, respectively. Ambroxol (a product from Sigma-Aldrich) was orally administered to the mice in the ambroxol administered group at 250 mg/kg body weight. Here, ambroxol is a substance having expectoration action and has been selected as a positive control substance. 30 minutes after the oral administration of the test material, saline in which phenol red (a product from Sigma-Aldrich) was dissolved at a concentration of 0.05 g/mL was intraperitoneally administered at 15 mL/kg. Then, 30 minutes after the administration of phenol red, the mice were euthanized by inhalation of carbon dioxide, and the tracheae were extirpated. Given sites of the extirpated tracheae were cut into sections of fixed size to obtain trachea sections. The obtained trachea sections were added to centrifugation tubes, and 1 mL of saline was added there, and the mixture was sonicated using a ultrasonic washing machine for 15 minutes. After the centrifugation of 5 minutes at 10000 rpm, 0.5 mL of a upper layer solution was dispensed to the centrifugation tubes and 0.05 mL of 1 N sodium hydroxide was added to the tubes. After stirring with a vortex mixer, 0.2 mL of a sample was dispensed to a 96 well plate, and absorbance was measured at 546 nm using a micro plate reader (a product from BioTek Instruments, Inc). The amounts of phenol red excreted from the trachea sections of the mice in the control group and test groups were calculated by extrapolating the measured absorbance to the standard curve based on the absorbance of phenol red reference standard ([…], 2.3 and 1.2 ng/mL). The amounts of phenol red excreted from the trachea sections were substituted in the following formula to calculate the sputum excretion ability of the test material. The formula to calculate the sputum excretion ability is as follows: “sputum excretion ability(%)={(A/B)−1}×100” wherein A is the amounts of phenol red of the test material administered groups (an average) and B is the amount of phenol red of the negative control group (an average).

[2] = tested on: IgE; test: Total content of IgE in serum, ovalbumin asthma model; assay type: in vivo, BALB/c female mice; conditions: day 25, compared to OVA group
Procedure: 6 week old BALB/c female mice were purchased and the mice were divided into 5 groups with 5 animals per group shown in Table 3 below after habituation breeding of about 2 weeks.
The test was conducted on the schedule of sensitization, causing diseases and administration of test materials shown in FIG. 12. “IP” in FIG. 12 refers to ovalbumin sensitization treatment by the intraperitoneal administration of ovalbumin/aluminum hydroxide, and “IH” refers to inhalation exposure treatment of ovalbumin, and “PO” refers to the administration of the test materials. Specifically, 200 μL of PBS (pH 7.4) emulsified by the addition of 20 μg ovalbumin and 2 mg aluminum hydroxide as an adjuvant was intraperitoneally administered to all mice in 4 groups except the normal control group (the initial sensitization, day 1 of the test). Then, after 2 weeks (day 14 of the test), the second sensitization treatment was conducted in the same way as the initial sensitization. […]
On day 25 of the test, the total contents of IgE and contents of ovalbumin-specific IgE in serums were measured using blood collected from orbital sinuses of the mice. An ELISA kit for IgE measurement (a product from BioLegend, Inc.) was used for the measurement and the contents were measured at wavelength of 450 nm using a micro plate reader (a product from Bio-Rad Laboratories, Inc.).

SMILES: CCCCCCOc1cc(C)c(O)c(C)c1C [HTHQ, 2,3,5-trimethylhydroquinone-1-hexyl ether]
- sputum excretion ability ([1]; HTHQ 100 mg/kg oral single dose): 24.6%
- sputum excretion ability ([1]; HTHQ 200 mg/kg oral single dose, significant increase): 30.0%
- sputum excretion ability ([1]; HTHQ 400 mg/kg oral single dose, significant increase): 36.2%
- total amount of IgE in serum ([2]; HTHQ 20 mg/kg/day oral (HTHQ20)): significant reduction
- total amount of IgE in serum ([2]; HTHQ 40 mg/kg/day oral (HTHQ40)): a declining trend
